Data published in the OPERA property sets (Mansouri et al. 2018).

SMILES	logP
Clc1cc(Cl)c(N=C2NCCN2)cc1Cl	2.11
O=C(c1ccncc1)c1ccc([N+](=O)[O-])cc1	1.76
C#CC(C=C)(CC)OC(N)=O (stereo unspecified)	1.09
O=C(c1ccncc1)c1ccc(Cl)cc1	2.61
COc1cc(Cc2cnc(N)nc2N)c(Br)cc1Br	3.17
CN(C)c1ccc2c(c1)C(=O)OC2(C)C	2.42
CNc1cc(Cc2cnc(N)nc2N)cc(N(C)C)c1OC	1.56
Clc1ccc(N=C2NCCN2)c(Cl)c1	1.96
CNC(=O)ON=CC(C)(C)[N+](=O)[O-]	0.36
COC(=O)C(C#N)=NNc1ccc(Cl)c(C(F)F)c1	3.8
CNC(=O)Oc1cc(C)cc(C(C)(C)C)c1	3.35
O=[N+]([O-])c1cnc(N=C2OCCN2CCO)s1	0.43
CC(C)(C)C(=O)NN1CC=CCC1	1.03
CC(C)(C)NC(=O)NN	-0.81
O=C(NCCO)c1cccnc1	-0.11
N#CSc1ccccc1	2.54
S=c1[nH]cnc2[nH]cnc12	0.01
Nc1cnccn1	-0.07
Cc1ccc(CN(C)N=Nc2ccc(C(=O)O)cc2)cc1	4.75
N#Cc1cccc(N2C(=O)CCC2=O)c1	0.02
CC(C)(C)CC1=Nc2ccc(Cl)cc2S(=O)(=O)N1	2.71
O=NN(CCCl)C(=O)NC1CCSCC1	2.07
CN(C)c1ccc2c(c1)C(c1ccccc1)=NCC(=O)N2	2.43
Brc1n[nH]c(Br)n1	2.24
O=CNC=Cc1ccccc1	1.95
CC(=O)C(C#N)=NNc1ccc2c(c1)OC(F)(F)C(F)(F)O2	5.31

SMILES	logP
OC(CN1CCCC1)c1ccccc1 (stereo unspecified)	1.38
COC1(C(F)(F)F)C(Cl)C(Cl)C(Cl)C(Cl)C1Cl (stereo unspecified)	4.06
CCOP(=S)(OCC)Oc1ccc(S(C)(=O)=O)cc1	2.56
Cc1csc(C=Cc2ccc([N+](=O)[O-])o2)n1	1.53
NC1CC2OC1c1ccccc12 (stereo unspecified)	0.75
CC(C)Nc1ccccc1C(N)=O	2.07
CN1CCN(C(=O)c2ccccc2)CC1	0.35
CN1C(=N)SC(=Cc2ccc([N+](=O)[O-])o2)C1=O	1.44
CCC(CC)(OC)C(=O)NC(N)=O	0.96
CN(SN(C)C(=O)OC(C)(C)C)C(=O)Oc1cccc2c1OC(C)(C)C2	4.3
CCOCCn1ccnc1[N+](=O)[O-]	0.53
COc1ccc(CC(C)N)c(OC)c1OC (stereo unspecified)	1.51
CC(C)OCC(O)Cn1ccnc1[N+](=O)[O-] (stereo unspecified)	0.51
O=NN(CCCl)C(=O)NC1C=CCCC1 (stereo unspecified)	2.45
CCCC(=O)N(C)SN(C)C(=O)ON=C(C)SC	2.2
ClC1=C(Cl)C(Cl)C(Cl)C(Cl)C1Cl (stereo unspecified)	4.31
O=NN(CCF)C(=O)NC1CSCSC1	1.54
CC1CNC(=Nc2ncc([N+](=O)[O-])s2)N1 (stereo unspecified)	1.82
O=C(CNC(=O)c1ccccc1)Oc1cccc(C(F)(F)F)c1	3.3
CCCCSC(C)(C)C(N)=O	1.81
S=C=NCc1ccc2ccccc2c1	4.42
CCCNP(=O)(OC)Oc1cc(Cl)c(Cl)cc1Cl (stereo unspecified)	3.7
O=[N+]([O-])c1cc[n+]([O-])c2c([N+](=O)[O-])cccc12	0.76
COc1cc(OC)c(CC(C)N)c(OC)c1 (stereo unspecified)	1.57
O=S(=O)(Nc1ccc(F)cc1F)C(F)(F)F	3.06
CCN(CC)CCNC(=O)c1cc(S(C)(=O)=O)ccc1OC	0.9

SMILES	logP
CC(=O)OCCN1CCS/C1=N/c1ncc([N+](=O)[O-])s1	1.88
O=C1NC(=S)SC1=Cc1ccc([N+](=O)[O-])o1	0.74
O=C1CN=C(c2ccc(Br)cc2)c2cc(Br)ccc2N1	4.04
c1ccc(O[Si]23OCCN(CCO2)CCO3)cc1	-0.3
CCc1cc(C(=O)NN)ccn1	0.12
CCOC(=O)c1ccc2cccccc1-2	3.83
COc1ccc(N(C)C(C)=O)cc1	0.72
CN(Cc1ccccc1)N=Nc1ccc(C(N)=O)cc1	2.76
CN(C)C(=O)Cc1ccsc1	0.65
S=C=Nc1ccc(Nc2ccccc2)cc1	4.94
Nc1nc(N)nc(-c2cc(Cl)ccc2Br)n1	1.85
O=C1CN=C(c2ccccc2Cl)c2cc(Cl)ccc2N1	3.15
COc1cc(Cc2cnc(N)nc2N)cc(OC)c1C#N	1.39
CN=C1SC(=Cc2ccc([N+](=O)[O-])o2)C(=O)N1C	1.42
CC(=O)N(CCCl)c1ccc(CC(=O)O)cc1	1.2
COc1ccc(NS(=O)(=O)C(F)(F)F)cc1	3
O=[N+]([O-])c1nccn1CC(O)COc1ccccc1 (stereo unspecified)	1.43
Cc1ccc(C=C[N+](=O)[O-])cc1	2.66
Cc1cnc2cccc(C)n2c1=O	1.26
CC/N=C(N)/N=C(\N)Nc1ccc(Cl)cc1	2.14
COc1cc(Cc2cnc(N)nc2N)cc(OC)c1C(C)=O	1.1
Cc1[nH]c(=O)n(O)c(=O)c1Br	-1.12
CCOC(=O)C(=Cc1ccccc1)C(=O)OCC	3.13
NC1CC2CCC1c1ccccc12 (stereo unspecified)	2.29
